For test [1], the system named is Bbs2−/− mouse model of BBS. Nature of the test: GL1 analysis in tissues of Bbs2−/− mice. Format: in vivo. Particulars: 0.033% w/w in feed from 1 to 6 months of age. The text has this: (§1) A Bbs2^−/− mouse model has been described by Nishimura D Y et al. (Proc Natl Acad Sci, 101:16588-16593 (2004)) with exons 5-14 of Bbs2 replaced with a neomycin cassette. Mice were backcrossed into 129/SvJ background. Treated Bbs2^−/− mice were fed ad libitum with 0.033% w/w of Compound 1 incorporated in feed from the age of 1 month to 6 months. Bbs2^−/− and Wt control animals were fed regular 5053 chow (LabDiet). To establish metabolic disease, Bbs2^−/− mice were left untreated until four-months of age, and then treated with Compound 1 incorporated into feed for the fifth and sixth months.
Quantitative analysis of glycosylceramide was performed by liquid chromatography and tandem mass spectrometry (LC/MS/MS). Briefly, 100 mg of tissue were homogenized in 1 ml of water with Mini Beadbeater (BioSpec Products, Inc., Bartlesville, OK). 10 μl of homogenate was extracted with 1 ml of 90% of 96:2:1:1 acetonitrile/methanol/acetic acid/water (v/v/v/v) (mobile phase A) and 10% of 98:1:1 methanol/acetic acid/water (v/v/v) (mobile phase B); both contained 5 mM ammonium acetate. The samples were placed on a VX-2500 tube vortexer (VWR International, LLC, MA) for 5 min and then centrifuged for 4 min at 8,400 rpm (Beckman Coulter, Inc., IN). […] Quantitation was performed using GL1 standard (Glucocerebrosides, Gaucher's spleen; Matreya, LLC, Pleasant Gap, PA).

In test [2] the test system is Bbs2−/− mice. Nature of the test: Metabolic parameters in Bbs2−/− mice. Format: in vivo, mouse.
Source text: as §1
Body composition was analyzed using an EchoMRI™. Measurements of the fat mass and of lean mass were recorded and percent of body fat was calculated. Body composition was calculated using the following formula: fat mass/(fat mass+lean mass).
Food weights were recorded from the food hopper and bedding. Average food consumption per animal per day was estimated using the following formula: [(food weight at start of period−(food weight at end of period in hopper[…])]/#animals in the cage/#days of observation.
Blood was collected during necropsy and incubated for 15 minutes at room temperature to allow clot formation. Clot was removed by centrifugation at 15,000 rpm for 5 minutes to collect serum. Leptin ELISA kit (R&D Systems) was used to measure leptin concentrations according to the manufacturer's instructions.
Total RNA was isolated from homogenized adipose tissue dissected from 6-month old mice using TRizol and chloroform extraction followed by the RNAeasy Mini Kit Purification (Qiagen), quantified using the NanoDrop 2300 system, and was reverse transcribed using High Capacity cDNA Reverse Transcription Kit (Applied Biosystems). Primers for Fas and Srebf1 were purchased from Applied Biosystems. Quantitative PCR was performed in duplicate for each sample on an Applied Biosystems RT-PCR machine using Taqman Universal Master Mix (Thermo Fisher) according to the manufacturer's instructions. Relative amounts of mRNA were determined using the Comparative CT Method for quantification and were normalized to GAPDH mRNA levels.
Automated digital image analysis was performed on whole adipose tissues using Visiopharm Image Analysis software (DK-2970 Hoersholm, Denmark, version 6.9.1). Two custom-written applications were created and run consecutively for each digital image. The first application detected adipose tissue using threshold classification and outlined the area as a Region of Interest (ROI). The second application used threshold to classify the tissue inside the ROI into three categories: Cytoplasm (cytoplasmic membrane), Adipose (Adipocyte), and Other (unwanted artifacts, large vessels, other tissue). Post processing steps included enclosing adipose with cytoplasm and selecting adequate adipose cells for counting by removing any adipose with a form factor less than 0.5.
Paraffin-embedded samples of brain tissue from Wt and Bbs2^−/− mice were cut and 4 micrometer sections were boiled in Antigen Retrieval solution (DAKO) in a pressure cooker to unmask antigens. Sections were blocked for 1 hour with 3% BSA followed by incubation with primary antibodies to adenylate cyclase III (Santa Cruz Biotechnology) diluted in 3% BSA overnight at 4° C. Alexa Fluor 488 secondary antibody (Invitrogen) was used at the dilution 1:1000. Images were acquired on a Leica DM5500B microscope fitted with ×40 and ×60 objectives using Leica Application Suite Advance Fluorescence software (Leica Microsystems).

[3] abbreviates: 0.033% w/w in feed from 1 to 6 months of age.
[4] abbreviates: established disease, 0.033% w/w in feed starting at 4 months of age, after one month.
[5] abbreviates: white adipose tissue, feed from 1 to 6 months of age.

`CC(C)(NC(=O)OC1CN2CCC1CC2)c1cccc(-c2ccc(F)cc2)c1` (stereo not drawn) [Compound 1, 1-azabicyclo[2.2.2]oct-3-yl [2-(4′-fluorobiphenyl-3-yl)propan-2-yl]carbamate]: the “levels of GL1 in the brain, kidney, liver and serum” value in test [1] is “reduction”. Also, in test [2] (setting [3]), the body fat entry is reported as “significant decrease”, the body weight result is reported as “significant decrease”, the food consumption result was “significant decrease” and the serum leptin result was “reduced to wild type levels”. Besides, the “cilia in the hypothalamus” value in test [2] (Compound in feed) is listed as “preserved the hypothalamic cilia”. For the same compound, in test [2] (setting [4]), the body fat entry is “decreased”, the body weight entry is reported as “decreased” and the serum leptin entry was “decreased”. Moreover, the adipocyte size entry in test [2] (established disease, after the two-month treatment) is listed as “decrease of adipocyte size”. Moreover, in test [2] (setting [5]), the adipocyte size result was “reduction of adipocyte size” and the “expression of pro-adipogenic gene Srebf1” value is given as “corrected upon treatment to the levels observed in Wt control”.

(Values after patent US12527776B2, “Treatment of ciliopathies using inhibitors of glucosylceramide synthase (GCS)” (GENZYME CORPORATION, priority 2019, dated 2026).)
